In the case of `O=C(NC(Cc1ccc(OCc2ccccc2)cc1)C(=O)NC1C(C(=O)O)OC(n2cnc3c(NC(=O)c4ccccc4)ncnc32)C1O)OCc1ccccc1` (stereo unspecified), the melting point is reported as 150 to 155 °C. With `COC(=O)c1ccc(Cc2c[nH]c3ccc(C#N)cc23)c(OC)c1` the melting point was 148 to 149 °C. Compound `CC(C)(C)OC(=O)NCC(=O)Nc1ccc2c(c1)-c1c(c(C(=O)C(C#N)C(=O)Nc3ccccc3)nn1-c1ccccc1)CS2` (stereo unspecified) has a melting point of 190 to 200 °C. Compound `CCOC(=O)/C=C/c1cc(OCc2ccc(OCc3nc(-c4ccco4)oc3C)c(OC)c2)nn1-c1ccccc1` has a melting point of 127 to 128 °C. Compound `CC(=O)Oc1ccccc1C=C1CCCc2cc(C)cnc21` has a melting point of 85 to 87 °C. With `O=C(Nc1ccc2c(c1)c1ccccc1n2CCO)c1ccccc1Cl` the melting point was 168 to 169 °C. For `c1csc(-c2ccc(-c3cccs3)c3nsnc23)c1`, the melting point was 121 to 122 °C. With `C[C@H](NC1=NC=NC(N)(Cl)N1)c1ccccc1` (stereo partly specified) the melting point was 163 to 164 °C. `COC=C(C(=O)OC)c1ccccc1Oc1ccn(-c2ccc(Cl)cc2)n1` showed a melting point of 109 to 110 °C. Compound `NC1=NS(=O)N=C1NCCCOc1cccc2c(=O)[nH]ccc12` (stereo unspecified) has a melting point of 235 °C. Compound `CC(=O)c1ccc2c(c1)Cc1cccc(C(C)=O)c1-2` has a melting point of 128 to 129 °C. Work on `FC(F)(F)c1ccc(-c2ncc(C#Cc3cc4ccccc4s3)s2)cc1` yielded a melting point of 178 to 180 °C. `O=C1c2cccc3c(Cl)c(Cl)cc(c23)C(=O)N1O` showed a melting point of 267 to 269 °C. Work on `CCOc1ccc(C2SC(=N)NC2=O)c(OCC)c1` (stereo unspecified) yielded a melting point of 179 to 181 °C. Compound `Cc1ccc(C(=O)OC2CCN(Cc3ccccc3[N+](=O)[O-])CC2)cc1` has a melting point of 86 to 87 °C. With `CCCCN(Cc1ccc(-c2ccccc2S(=O)(=O)NC(=O)c2ccccc2Cl)cc1)C(=O)Oc1ccccc1C(F)(F)F` the melting point was greater than 150 °C. Compound `COc1ccc2cc([C@H](C)C(=O)OCC(=O)N3CCC(CCO[N+](=O)[O-])CC3)ccc2c1` has a melting point of 83 to 85 °C. In the case of `CC(=O)Nc1ccc(F)cc1C`, the melting point is reported as 131 to 132 °C. With `COc1cc(C(=O)c2ccnc3ccccc23)cc([N+](=O)[O-])c1O` the melting point was 246 to 248 °C. With `Nc1cc(N2CC(COc3ccccc3)OC2=O)ccn1` (stereo unspecified) the melting point was 191 to 192 °C. For `COc1cc(Nc2c(C#N)cnc3cc4cc(OC)c(OC)cc4cc23)c(C)cc1Cl`, the melting point was 171 to 173 °C. Compound `CN(C)C(=O)c1cc(-c2ccccc2)c(=O)[nH]c1-c1c(Cl)cccc1C#N` has a melting point of 264 to 267 °C. With `CC1(C)CC(=O)C(C(=O)Nc2ccc(Cl)c(Cl)c2)C(=O)O1` (stereo unspecified) the melting point was 212 to 215 °C. In the case of `Nc1nc2ccccc2c2c1ncn2CCCCS(=O)(=O)c1ccccc1`, the melting point is reported as 175 to 177 °C. `CCCSc1nc(N)nc2c1ncn2C1C=CC(CO)C1` (stereo unspecified) showed a melting point of 128 to 130 °C. With `Nc1cc(N2C(=O)CCc3ccccc32)ccn1` the melting point was 204 to 205 °C. With `CN(C)C1CCC(Nc2ncc3ncnc(Nc4ccc(F)c(Cl)c4)c3n2)CC1` (stereo unspecified) the melting point was 178 to 180 °C. `N#CCC(=O)c1ccccc1Cl` gave a melting point of 56 to 58 °C. `Cn1cc(C(=O)NCc2ccc(Cl)cc2)c(=O)c2cc(I)ccc21` gave a melting point of 205 to 208 °C. `CCOC(=O)C(C(=O)OCC)C(=O)C(C)Oc1ccc(Oc2ccc(C#N)cc2)cc1` (stereo unspecified) gave a melting point of 42 to 46 °C. In the case of `COC(=O)c1ccc(C=C2CCn3c2nc2cc([N+](=O)[O-])ccc2c3=O)cc1`, the melting point is reported as 264 to 266 °C. Compound `CCCCCCNC(=O)c1ccc(N2N=C(CCC)C(=CNc3ccccc3CC)C2=O)cc1` has a melting point of 46.7 °C. `CC1Cc2ccc(Cl)cc2C(c2ccc(N)cc2)=NN1C(=O)C(F)(F)F` (stereo unspecified) gave a melting point of 165 to 167 °C. Work on `CC(Oc1ccnc2ccccc12)C(=O)Nc1ccc(Cl)cc1` (stereo unspecified) yielded a melting point of 170 to 172 °C. In the case of `CC(=O)Nc1ccc(Cl)c2c1C(=O)CCN2C(C)=O`, the melting point is reported as 175 to 177 °C. In the case of `Cc1cc(Cc2ccccc2)c(NCc2ccccn2)c(=O)n1CC(=O)O`, the melting point is reported as 63 °C. In the case of `CCNC(=O)n1nc(Oc2ncc(C(F)(F)F)cc2Cl)c(Br)c1C`, the melting point is reported as 123 to 125 °C. `CC(C)CC(CS)C(=O)NCC(=O)NCC(=O)O` (stereo unspecified) showed a melting point of 152 to 156 °C. In the case of `O=C(O)CON=C1CCCc2cc(OCCn3ccnc3)ccc21`, the melting point is reported as 193 to 195 °C. For `O=C1CCC(c2ccc(CCN3CCN(c4ncccn4)CC3)cc2)N1` (stereo unspecified), the melting point was 182 to 183 °C. Work on `CCC(C(=O)N(C)C)n1cc(Br)cn1` (stereo unspecified) yielded a melting point of 97 to 100 °C. Compound `O=C(O)CCc1ccc(Sc2ccc(CCC(=O)O)cc2C(F)(F)F)c(C(F)(F)F)c1` has a melting point of 175 to 178 °C. In the case of `CC1SC(=O)NN=C1c1ccc2c(c1)C(=NNC(=O)c1ccccn1)C(=O)N2` (stereo unspecified), the melting point is reported as greater than 300 °C. In the case of `O=Cc1cc2n(c1)Cc1ccccc1-n1ccnc1-2`, the melting point is reported as 203 to 205 °C. `Cc1ccc(CC(C)(C)C(=O)C=CN(C)C)cc1` gave a melting point of 74 to 76 °C. Work on `CCOC(=O)/C=C/c1cccc(-c2ccc(OCC)c(OC)c2)c1` yielded a melting point of 89 to 91 °C. In the case of `O=C(c1ccco1)c1cnn2c1NCCC2`, the melting point is reported as 138 to 139 °C. In the case of `COCN1C(C)=C(C(=O)OCc2ccccc2)C(c2cccc(Cl)c2Cl)C(C(=O)OCc2ccccc2)=C1C`, the melting point is reported as 116 to 117 °C. Compound `COCCONC(=O)c1nc(-c2ccc(Cl)c(OC)c2F)cc(N)c1Cl` has a melting point of 155 to 157 °C. In the case of `NS(=O)(=O)c1ccc(-c2cc(F)c(F)cc2-c2ccc3c(c2)OCCO3)cc1`, the melting point is reported as 107 to 108 °C. `CCOC(=O)C(C)(Cc1ccc(O)c(OC)c1)NN` (stereo unspecified) gave a melting point of 114 to 116 °C. Work on `COCCn1nc(-c2sc(C(=O)NCc3ccccn3)nc2-c2ccccc2)ccc1=O` yielded a melting point of 168 to 170 °C. Work on `CC(C)(C)OC(=O)N1CCc2onc(O)c2C1` yielded a melting point of 151 to 152 °C. With `O=c1[nH]c2cc3[nH]c(=O)oc3cc2[nH]1` the melting point was greater than 360 °C. `CCC(C)(CCc1ccccc1)NC(=O)n1nc(C)n(N)c1=O` (stereo unspecified) showed a melting point of 78 °C. `COc1ccc(-c2c(SCc3ccncc3)oc3cc(OCc4ccccc4)ccc3c2=O)cc1` gave a melting point of 170 °C. Work on `CCn1c(=O)c2c(nc(/C=C/c3ccccc3OC)n2C)n(CC)c1=O` yielded a melting point of 190 °C. Work on `CN(C)c1ccc(C2CC3(C)C(O)CCC3C3CCC4=CC(=O)CCC4=C23)cc1` (stereo unspecified) yielded a melting point of 166 to 167 °C. For `Cc1cccc2c(Cl)c(CCCl)nnc12`, the melting point was 102 to 104 °C. `O=S(=O)(NCCCCOc1ccc(-c2cc[nH]n2)cc1)c1ccc(Br)cc1` showed a melting point of 157 to 158 °C. For `COc1cc(Nc2c(C#N)cnc3cc4cc(OCCN5CCC(O)CC5)c(OC)cc4cc23)c(Cl)cc1C`, the melting point was 210 to 215 °C. In the case of `C[C@@H](n1cnc2cc(-c3ccc(C=NNO)cc3)sc2c1=O)[C@](O)(Cn1cncn1)c1ccc(F)cc1F`, the melting point is reported as 246 to 247 °C. Compound `CCCCCCCCC(=O)N(C)O` has a melting point of 29 °C. For `Cn1ncnc1COc1nn2c(-c3ccc(F)cc3)nnc2cc1-c1ccsc1`, the melting point was 268 to 269 °C. Compound `Cc1c(SCCCCl)ccnc1CSc1nc2cc(F)ccc2[nH]1` has a melting point of 188 to 191 °C. For `COc1ccc(-c2cc3c(C#N)c(OC)ccc3o2)cc1`, the melting point was 120 to 122 °C. For `Cn1c(C(F)F)nn(-c2cc(O)c(Cl)cc2F)c1=O`, the melting point was 153 to 155 °C. In the case of `CS(=O)(=O)c1ccc(-c2cccn2-c2ccc3c(c2)OCO3)cc1`, the melting point is reported as 172 to 175 °C. For `O=C(O)c1cc2cc(-c3ccccc3)ccc2o1`, the melting point was 220 to 221 °C. Work on `O=[N+]([O-])c1c(Cl)cc(-c2n[nH]cc2Cl)cc1Cl` yielded a melting point of 177 °C. `COC(=O)c1cccc(-c2nc(COc3ccc(CON4CC(C=O)=CN4c4ccccc4)cc3OC)c(C)o2)c1` gave a melting point of 164 to 165 °C.

— a melting point compilation (Tetko et al.; mined from patent text by program, amines drawn as free bases though some values may be those of a salt)
